Experimental data: patent US20240124460A1, “METHODS AND COMPOSITIONS FOR TARGETED PROTEIN DEGRADATION” (Ranok Therapeutics (Hangzhou) Co. Ltd., priority 2020, published 2024)

What was measured:
[1] = test system: A549 human lung carcinoma; assay: A549 CCK-8 proliferation assay; assay type: cell-based; details: A549 cells, 72 hr
Description: (§1) The following cancer cell lines were employed: A549 human lung carcinoma (ATCC, #CCL-185); BT-474 human breast carcinoma (ATCC, #HTB-20); MDA-MB-231 human breast adenocarcinoma (ATCC, #CRM−HTB-26); MDA-MB-468 human breast adenocarcinoma (ATCC, #HTB-132); MV-4-11 human acute myeloid leukemia (ATCC, #CRL-9591); and U-87 MG human glioblastoma (ATCC, #HTB-14). Cell lines were cultured essentially according to ATCC recommendations.
(§2) 3-fold serial dilutions of each test compound were prepared ranging from 20 μM to 1.02 nM.
(§3) % Inhibition=100−(D−B)/(S−B)*100%. • S: Absorbance of cells treated with DMSO • D: Absorbance of compound-treated cells • B: Absorbance of medium with DMSO without cells

[2] = test system: MV-4-11 human acute myeloid leukemia; assay: MV-4-11 CCK-8 proliferation assay; assay type: cell-based; details: MV-4-11 cells, 72 hr
How it was run: (§4)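 Inhibition is derived from CCK-8 absorbance of compound-treated cells relative to DMSO-treated cells, after subtracting a cell-free medium/DMSO background. Test concentrations span 20 μM down to 1.02 nM in 3-fold steps, and lines are cultured as ATCC recommends.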

[3] = test system: U-87 MG human glioblastoma; assay: U87 MG CCK-8 proliferation assay; assay type: cell-based; details: Homo sapiens, U-87 MG, 72 h, U-87 MG cells, read-out: U87MG CCK-8
How it was run: as §4

HSP90α protein [4] = biological target: T1, HSP90α protein (Homo sapiens, UniProt P07900); assay: HSP90α-binding FP (FITC) assay; details: FP competition with FITC-geldanamycin
T1 construct: purchased BPS Bioscience #50298
How it was run: (§5)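 Fluorescence polarization measured competition with N-terminal human HSP90α, using either FITC-geldanamycin or BODIPY-labelled triazolone RNK04010 as tracer (5 nM final each). Compounds were tested in 2.5-fold dilutions from 20 μM to 5.2 nM, with incubation at 25 °C for 120 min (FITC) or 300 min (BODIPY).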

[5] = test system: MDA-MB-468 human breast adenocarcinoma; assay: MDA-MB-468 CCK-8 proliferation assay; assay type: cell-based; details: MDA-MB-468 cells, 72 hr
Description: as §1, §2, §3

ERBB2 = ERBB2 (HER2) flow cytometry protein degradation assay in BT-474 cells; assay type: cell-based, human; details: DC50, BT-474 cells, 24 hr
How it was run: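 BT-474 cells trypsinised after compound treatment and stained with PE-conjugated anti-ERBB2 antibody, 30 min at 25° C in the dark, then fixed in 1% paraformaldehyde for flow cytometry. % inhibition = 100−(D−B)/(S−B)*100, using treated, untreated-stained and unstained cell fluorescence.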

MAPK7 [6] = biological target: T2, MAPK7 (Homo sapiens, UniProt Q13164); assay: MAPK7 Western blot protein degradation assay in U-87 MG cells; assay type: cell-based; parameters: U-87 MG human glioblastoma cells, which express MAPK7; endogenous in cells; host or cells: U-87 MG; details: 48 hr
How it was run: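 U-87 MG glioblastoma cells treated with compounds at various concentrations for 48 h at 37 °C. MAPK7 (ERK5) levels in protein-normalized lysates measured by Western blot with β-actin as loading reference, quantified by fluorescence imaging.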

[7] = test system: MDA-MB-231 human breast adenocarcinoma; assay: MDA-MB-231 CCK-8 proliferation assay; assay type: cell-based; details: MDA-MB-231 cells, 72 hr
Description: as §1, §2, §3

HSP90α protein [8] = biological target: T1, HSP90α protein; assay: HSP90α-binding FP (BODIPY) assay; details: FP competition with BODIPY-labeled RNK04010
How it was run: as §5

MAPK7 [9] = biological target: T2, MAPK7; assay: MAPK7 kinase assay (ADP-Glo); assay type: biochemical; parameters: purchased Carna Biosciences #04-146; details: ATP 340 μM
How it was run: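 Recombinant human MAPK7 (20 nM) with 0.1 mg/ml myelin basic protein and 340 μM ATP; compounds in 3-fold dilutions from 50 μM to 2.54 nM. ADP formation read by ADP-Glo luminescence, scaled between 0.5% DMSO and 10 μM XMD17-109 controls.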

T2 sequence (Q13164 whole entry): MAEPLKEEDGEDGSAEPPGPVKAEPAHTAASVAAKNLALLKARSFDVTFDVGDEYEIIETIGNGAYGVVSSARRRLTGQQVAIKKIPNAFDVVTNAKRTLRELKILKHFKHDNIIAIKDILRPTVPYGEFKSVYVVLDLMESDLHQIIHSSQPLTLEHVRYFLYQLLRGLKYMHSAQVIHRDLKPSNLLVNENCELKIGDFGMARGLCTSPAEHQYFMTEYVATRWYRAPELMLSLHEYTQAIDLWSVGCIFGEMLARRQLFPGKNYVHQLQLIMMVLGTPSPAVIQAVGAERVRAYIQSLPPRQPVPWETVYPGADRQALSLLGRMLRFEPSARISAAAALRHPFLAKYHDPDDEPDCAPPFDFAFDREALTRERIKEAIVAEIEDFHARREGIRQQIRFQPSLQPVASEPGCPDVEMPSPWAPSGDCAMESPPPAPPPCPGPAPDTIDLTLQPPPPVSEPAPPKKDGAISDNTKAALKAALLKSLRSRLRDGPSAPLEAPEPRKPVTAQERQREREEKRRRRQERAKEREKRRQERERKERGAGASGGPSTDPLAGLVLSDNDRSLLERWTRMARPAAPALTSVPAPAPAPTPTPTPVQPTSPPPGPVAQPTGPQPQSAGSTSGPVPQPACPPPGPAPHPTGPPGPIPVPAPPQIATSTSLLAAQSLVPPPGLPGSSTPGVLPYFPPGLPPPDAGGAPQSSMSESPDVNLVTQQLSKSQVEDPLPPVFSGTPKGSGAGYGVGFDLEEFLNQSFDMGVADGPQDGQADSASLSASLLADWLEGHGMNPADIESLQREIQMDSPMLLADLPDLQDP

| SMILES | EC50 [1] | EC50 ([2]; Homo sapiens, MV4-11) | EC50 [3] | IC50 (HSP90α protein [4]) | EC50 [5] | ERBB2 degradation (ERBB2) | MAPK7 degradation (30 nM) (MAPK7 [6]) | MAPK7 degradation (100 nM) (MAPK7 [6]) | MAPK7 degradation (1000 nM) (MAPK7 [6]) | EC50 [7] | IC50 (HSP90α protein [8]) | EC50 [2] | IC50 (MAPK7 [9]) | MAPK7 degradation (300 nM) (MAPK7 [6]; 300 nM) |
| --- | --- | --- | --- | --- | --- | --- | --- | --- | --- | --- | --- | --- | --- | --- |
| CCOc1cc(N2CCC(C(=O)N3CCC(N4CCN(Cc5ccc(-n6c(O)nnc6-c6cc(C(C)C)c(O)cc6O)cc5)CC4)CC3)CC2)ccc1Nc1ncc2c(n1)N(C)c1ccccc1C(=O)N2C [Compound 004, 2-((4-(4-(4-(4-(4-(3-(2,4-dihydroxy-5-isopropylphenyl)-5-hydroxy-4H-1,2,4-triazol-4-yl)benzyl)piperazin-1-yl)piperidine-1-carbonyl)piperidin-1-yl)-2-ethoxyphenyl)amino)-5,11-dimethyl-5H-benzo[e]pyrimido[5,4-b][1,4]diazepin-6(11H)-one] | 100 to 1000 nM | < 100 nM | < 100 nM | 100 to 1000 nM | < 100 nM | B (DC50 = 100-1000 nM) | C (< 33% degradation) | C (< 33% degradation) | A (>66% degradation) | < 100 nM | 100 to 1000 nM | – | – | – |
| CCOc1cc(N2CCC(C(=O)N3CCC(CN4CCN(Cc5ccc(-n6c(C(=O)NC(C)C(F)(F)F)nnc6-c6cc(CC)c(O)cc6O)cc5)CC4)CC3)CC2)ccc1Nc1ncc2c(n1)N(S(C)(=O)=O)c1ccccc1C(=O)N2C.Cl (centres unmarked) [Compound 078, 4-(4-((4-((1-(1-(3-ethoxy-4-((5-methyl-11-(methylsulfonyl)-6-oxo-6,11-dihydro-5H-benzo[e]pyrimido[5,4-b][1,4]diazepin-2-yl)amino)phenyl)piperidine-4-carbonyl)piperidin-4-yl)methyl)piperazin-1-yl)methyl)phenyl)-5-(5-ethyl-2,4-dihydroxyphenyl)-N-(1,1,1-trifluoropropan-2-yl)-4H-1,2,4-triazole-3-carboxamide] | 100 to 1000 nM | – | 100 to 1000 nM | – | – | B (DC50 = 100-1000 nM) | – | – | – | – | 100 to 1000 nM | < 100 nM | 100 to 1000 nM | – |
| CCOc1cc(N2CCC(C(=O)N3CCC(N4CCN(c5ccc(-n6c(O)nnc6-c6cc(C(C)C)c(O)cc6O)cc5)CC4)CC3)CC2)ccc1Nc1ncc2c(n1)N(C)c1ccccc1C(=O)N2C [Compound 040, 2-((4-(4-(4-(4-(4-(3-(2,4-dihydroxy-5-isopropylphenyl)-5-hydroxy-4H-1,2,4-triazol-4-yl)phenyl)piperazin-1-yl)piperidine-1-carbonyl)piperidin-1-yl)-2-ethoxyphenyl)amino)-5,11-dimethyl-5,11-dihydro-6H-benzo[e]pyrimido[5,4-b][1,4]diazepin-6-one] | 100 to 1000 nM | < 100 nM | 100 to 1000 nM | – | < 100 nM | – | C (< 33% degradation) | B (33-66% degradation) | A (>66% degradation) | < 100 nM | 100 to 1000 nM | – | – | A (>66% degradation) |
| CCOc1cc(N2CCC(C(=O)N3CCC(CN4CCN(Cc5ccc(-n6c(O)nnc6-c6cc(C(C)C)c(O)cc6OC)cc5)CC4)CC3)CC2)ccc1Nc1ncc2c(n1)N(C)c1ccccc1C(=O)N2C [Compound 052, 2-((2-ethoxy-4-(4-(4-((4-(4-(3-hydroxy-5-(4-hydroxy-5-isopropyl-2-methoxyphenyl)-4H-1,2,4-triazol-4-yl)benzyl)piperazin-1-yl)methyl)piperidine-1-carbonyl)piperidin-1-yl)phenyl)amino)-5,11-dimethyl-5,11-dihydro-6H-benzo[e]pyrimido[5,4-b][1,4]diazepin-6-one] | > 1000 nM | > 1000 nM | > 1000 nM | – | > 1000 nM | C (DC50 > 1000 nM) | – | – | – | > 1000 nM | > 1000 nM | – | > 1000 nM | – |
| CCOc1cc(N2CCC(C(=O)NCC3CCN(C(=O)C4CCN(Cc5ccc(-n6c(O)nnc6-c6cc(C(C)C)c(O)cc6O)cc5)CC4)C3)CC2)ccc1Nc1ncc2c(n1)N(C)c1ccccc1C(=O)N2C (centres unmarked) [Compound 010, N-((1-(1-(4-(3-(2,4-dihydroxy-5-isopropylphenyl)-5-hydroxy-4H-1,2,4-triazol-4-yl)benzyl)piperidine-4-carbonyl)pyrrolidin-3-yl)methyl)-1-(4-((5,11-dimethyl-6-oxo-6,11-dihydro-5H-benzo[e]pyrimido[5,4-b][1,4]diazepin-2-yl)amino)-3-ethoxyphenyl)piperidine-4-carboxamide] | – | < 100 nM | 100 to 1000 nM | 100 to 1000 nM | > 1000 nM | C (DC50 > 1000 nM) | – | – | – | > 1000 nM | – | – | – | – |
| CCOc1cc(N2CCC(C(=O)N3CCC(CN4CCN(Cc5ccc(-n6c(O)nnc6-c6cc(CC)c(O)cc6O)cc5)CC4)CC3)CC2)ccc1Nc1ncc2c(n1)N(C)c1ccccc1C(=O)N2C [Compound 013, 2-((2-ethoxy-4-(4-(4-((4-(4-(3-(5-ethyl-2,4-dihydroxyphenyl)-5-hydroxy-4H-1,2,4-triazol-4-yl)benzyl)piperazin-1-yl)methyl)piperidine-1-carbonyl)piperidin-1-yl)phenyl)amino)-5,11-dimethyl-5H-benzo[e]pyrimido[5,4-b][1,4]diazepin-6(11H)-one] | – | < 100 nM | 100 to 1000 nM | 100 to 1000 nM | 100 to 1000 nM | B (DC50 = 100-1000 nM) | C (< 33% degradation) | C (< 33% degradation) | A (>66% degradation) | 100 to 1000 nM | – | – | – | – |
